Experimental findings from patent US20230084515A1, “THERAPEUTIC METHODS AND COMPOSITIONS FOR TREATING CANCER USING BRAF AND/OR MEK INHIBITOR COMBINATION THERAPY” (Vanderbilt University, priority 2020, published 2023) are described below.

One test concerns SC10. Put plainly: Proliferation assay (population growth curves, DIP rates) in SKMEL5 subline SC10. The test is classed as cell-based, human. The following applies: for effect of combination with BRAFi on proliferation (DIP rates): combination with PLX4720 8 μM. The procedure:
The cells are labeled lentivirally with a fluorescent, nuclear tag (Histone 2B monomeric Red Fluorescent Protein, H2BmRFP from AddGene), flow sorted for H2BmRFP positivity (top 10-15% brightest), and fluorescently counted under drug treatments. Cells are seeded into 96 well plates (1-5,000 cells per well) and drug treatments applied the following day, including DMSO or PBS control (all concentrations contained equal percentage of DMSO or PBS solvent). Images are taken every 8-12 hours with sufficient image alignment (montaging) in order to capture about 25-100 cells per well/treatment (over the course of the experiment, cell counts typically exceed 1,000 in DMSO or low drug concentration wells). Direct measurements of cell counts are made using Cellavista software and Image J macros. The images are filtered through these computer programs to track and label each cell, quantifying the number of cells in each time-stamped frame. Proliferation is platted as log2 normalized growth, using the initial cell count from the first image frame for normalization. Dose-response curves are generated using a 2-fold dilution of single drugs at various concentrations ranked highest to zero (zero containing only the solvent the drug was dissolved in, being either DMSO or H2O); all concentrations contained equal volumes of the solvent used. For combinations with PLX4720 (BRAF inhibitor), 8 μM PLX4720 was used as diluent, and serially diluted with the second drug from highest concentration to lowest. The drug-induced proliferation (DIP) rates (see, Harris, L. A., et al. “An unbiased metric of antiproliferative drug effect in vitro,” Nature Methods', 2016, vol. 13, p. 497-500.) are calculated using the slope of the log2-normalized population curves after 24 hrs. BRAF-mutated melanoma cells (SKMEL5, A375, WM793, SKMEL19, SKMEL28, WM164, WM88, A2058) were grown and cultured in Dulbecco's modified Eagle's medium and Ham's F-12 medium (DMEM:F12, 1:1. Cat #11330-032). Media were obtained from Gibco (Grand Island, N.Y.) and supplemented with 10% FBS, All cells were cultured in CO2, temperature-controlled (37° C.), and humidified incubators. Cells were tested for mycoplasma before use and confirmed negative. Cells were passaged 1-2× per week and maintained as exponentially growing cultures for a maximum of less than 2.0 passages. Unless otherwise indicated, cells were seeded 16-24 h prior to treatment to allow cells to adhere to culture plates. Reagents/drugs were prepared in complete medium immediately prior to adding to cells by replacement. PLX4720 (Cat #S1152) and vemurafenib (Cat #S1267) were obtained from Selleckchem (Houston, Tex.) solubilized in dimethyl sulfoxide (DMSO) at a stock concentration of 10 mM. […]

The next test has as its system A2058 cells. In words: Proliferation assay (population growth curves, DIP rates) in A2058 cells. The test is classed as cell-based, human. As to the method: The cells are labeled lentivirally with a fluorescent, nuclear tag (Histone 2B monomeric Red Fluorescent Protein, H2BmRFP from AddGene), flow sorted for H2BmRFP positivity (top 10-15% brightest), and fluorescently counted under drug treatments. Cells are seeded into 96 well plates (1-5,000 cells per well) and drug treatments applied the following day, including DMSO or PBS control (all concentrations contained equal percentage of DMSO or PBS solvent). Images are taken every 8-12 hours with sufficient image alignment (montaging) in order to capture about 25-100 cells per well/treatment (over the course of the experiment, cell counts typically exceed 1,000 in DMSO or low drug concentration wells). Direct measurements of cell counts are made using Cellavista software and Image J macros. The images are filtered through these computer programs to track and label each cell, quantifying the number of cells in each time-stamped frame. Proliferation is platted as log2 normalized growth, using the initial cell count from the first image frame for normalization. […] The drug-induced proliferation (DIP) rates (see, Harris, L. A., et al. “An unbiased metric of antiproliferative drug effect in vitro,” Nature Methods', 2016, vol. 13, p. 497-500.) are calculated using the slope of the log2-normalized population curves after 24 hrs. […]

Consider `c1ccc2c(c1)[I+]c1ccccc1-2` [DPI, Diphenyleneiodonium chloride], for which the “effect of combination with BRAFi on proliferation (DIP rates)” value (shortened to “effect of combination with BRAFi”) in the test on SC10 is “synergism”; in the test with A2058 cells (DPI 250 nM, BRAFi 8 μM, FIG. 6A) it was “enhancement of NOX-inhibition on the anti-proliferative effects of BRAF-inhibition”.
For the molecule `COc1cc(C(C)=O)ccc1O` [Apocynin], in the test with SC10, the “effect of combination with BRAFi” value is listed as “synergism”.
For `CCCS(=O)(=O)Nc1ccc(F)c(C(=O)c2c[nH]c3ncc(Cl)cc23)c1F` [PLX4720], the “DIP rates under BRAF-inhibition” value in the test with SC10 and in the test on A2058 cells was “positive DIP rates” throughout.
For the molecule `CN(C)c1cccc(-c2c3c(=O)n(-c4ccccc4Cl)[nH]c3cc(=O)n2C)c1` [GKT137831], the “effect of combination with BRAFi” value in the test on SC10 was “synergism”.
